Test results as given in patent US20040267001A1, “Genes encoding baeyer-villiger monooxygenases” (priority 2001, published 2004).

How the values were obtained:
[1] = test system: Brevibacterium sp. HCU chnB1 monooxygenase; assay: chnB monooxygenase activity assay, NADPH oxidation at 340 nm, purified over-expressed enzyme; format: biochemical; conditions: 1.25 mM substrate, pH 7.5; ND = No Activity Detected
Description: (§1) Following amplification, the chnB gene fragments were cloned into pTrcHis-TOPO TA vectors with either an N-terminal tail or C-terminal tail, as provided by the vector sequence (N-terminal tail for Brevibacterium sp. HCU, Rhodococcus sp. phi1, Rhodococcus sp. phi2, and Arthrobacter sp. BP2 monooxygenases; C-terminal tail for Acinetobacter sp. SE19 and Acidovorax sp. CHX monooxygenases). These vectors were transformed into E. coli, with transformants grown in Luria-Bertani broth supplemented with ampicillin (100 ug/ml) and riboflavin (0.1 ug/ml) at 30° C. until the absorbance at 600 nm (A600) reached 0.5. When the A600 was reached, the temperature was shifted to 16° C.
(§2) The encoded monooxygenase sequences were expressed upon addition of IPTG to the culture media, 30 min after the temperature shift to 16° C. The cultures were grown further ovemight (14 hrs) and harvested by centrifugation in a cold centrifuge. The cells were treated with lysozyme (100 mg/ml) for 30 min on ice and sonicated. Following sonication, cell extracts were centrifuged and the supernatant was equilibrated with Ni-NTA resin (Qiagen, Valencia, Calif.) for 1 hr at 4° C. Protein bound resin was washed successively with increasing concentrations of imidazole buffer until the protein of interest was released from the resin. The purified protein was concentrated and the buffer exchanged to remove the imidazole. The protein concentration was adjusted to 1 ug/ml.
(§3) Compounds were selected on the basis of previous observations by van der Werf (J. Biochem. 347:693-701 (2000)) and Miyamoto et al. (Biochimica et Biophysica Acta 1251: 115-124 (1995)) and by searches for the ketone substructure.
(§4) All compounds were obtained from Sigma-Aldrich with only two exceptions. Levoglucosenone was obtained from Toronto Research Chemicals, Inc. and dimethyl-2-piperidone was prepared according to U.S. Pat. No. 6,077,955. For enzyme assays all compounds were dissolved to a concentration of 0.1 M in methanol, with the exceptions of norcamphor (dissolved in ethyl acetate), cyclododecanone, cycltridecanone and cyclopentadecanone (dissolved in propanol), and levoglucosenone (dissolved with acetone).
(§5) The monooxygenase activity of each over-expressed enzyme was assayed spectrophotometrically at 340 nm by monitoring the oxidation of NADPH. Assays were performed in individual quartz cuvettes, with a pathlength of 1 cm. […] An Ultrospec 4000 (Pharmacia Biotech, Cambridge, England) was used to read the absorbance of the samples over a two to ten minute time period and the SWIFT (Pharmacia Biotech) program was used to calculate the slope of the reduction in absorbance over time. For the Brevibactedum sp. […] Monooxygenase activity of each over-expressed enzyme is shown in Table 5, with respect to each ketone substrate. The specific activity values listed are given in umol/min/mg. The notation “ND” refers to “No Activity Detected”.

[2] = test system: Rhodococcus sp. phi2 chnB monooxygenase; assay: as above; format: biochemical; conditions: 1.25 mM substrate, pH 7.5; ND = No Activity Detected
Description: as §1, §2, §3, §4, §5

[3] = test system: Arthrobacter sp. BP2 chnB monooxygenase; assay: as above; format: biochemical; conditions: 1.25 mM substrate, pH 7.5; ND = No Activity Detected
Description: as §1, §2, §3, §4, §5

[4] = test system: Rhodococcus sp. phi1 chnB monooxygenase; assay: as above; format: biochemical; conditions: 1.25 mM substrate, pH 7.5; ND = No Activity Detected
Description: as §1, §2, §3, §4, §5

[5] = test system: Brevibacterium sp. HCU chnB2 monooxygenase; assay: as above; format: biochemical; conditions: 1.25 mM substrate, pH 7.5; rates multiplied by a factor of 3.25 to adjust for decrease in activity due to storage; ND = No Activity Detected
Description: as §1, §2, §3, §4, §5

[6] = target: T1, Acinetobacter sp. SE19 chnB monooxygenase (Acinetobacter sp., UniProt Q9F7E4); assay: as above; format: biochemical; conditions: 1.25 mM substrate, pH 7.5; ND = No Activity Detected
T1 construct: isolated full length BVMO genes from Brevibacterium sp; HCU, Acinetobacter SE19; C-terminal tail provided by the pTrcHis-TOPO vector (C); made in house; host or cells: E. coli
Description: as §1, §2, §3, §4, §5

[7] = test system: Acidovorax sp. CHX chnB monooxygenase; assay: as above; format: biochemical; conditions: 1.25 mM substrate, pH 7.5; ND = No Activity Detected
Description: as §1, §2, §3, §4, §5

[8] = Conversion of cyclohexanone to caprolactone by E. coli clones expressing Rhodococcus erythropolis AN12 monooxygenases, GC-MS detection; format: cell-based, Escherichia coli; conditions: 500 mg/L cyclohexanone, 0.1 mM IPTG, overnight at 24° C., GC-MS of ethylacetate extract
Experimental: Following amplification, the gene fragments were cloned into pTrcHis-TOPO TA vectors with either an N-terminal tail or C-terminal tail, as provided by the vector sequence. These vectors were transformed into E. coli, with transformants grown in Luria-Bertani broth supplemented with ampicillin (100 ug/ml).
The chnB monooxygenase activity of each expressed enzyme from Example 9 was tested for activity according to its ability to convert cyclohexanone to caprolactone.
Clones containing the full length monooxygenase genes were transferred from LB agar plate to 5 mL of M63 minimal media (GIBCO) containing 10 mM glycerol, 50 ug/mL ampicillin, 0.1 mM IPTG, and 500 mg/L cyclohexanone. In addition to the clones containing full length monooxygenases, a plasmid without an insert and a “no cell” control were also assayed. The encoded monooxygenase sequences were expressed upon addition of IPTG to the culture media. The cultures were incubated overnight at room temperature (24° C.). Samples (1.25 mL) for analysis were taken immediately after inoculation and after overnight incubation; cells were removed by centrifugation (4° C., 13,000 rpm).
Caprolactone formed by the action of the cloned monooxygenase was extracted from the aqueous phase with ethylacetate (1.0 ml aqueous/0.5 mL ethylacetate). Caprolactone was detected by gas chromotagraphy mass spectrometry (GC-MS) analysis, using an Agilent 6890 Gas chromatograph system.
The analysis of the ethylacetate phase was performed by injecting 1 uL of the ethyl acetate phase into the GC. The inlet temperature was 115° C. and the column temperature profile was 50° C. for 4 min and ramped to 250° C. at 20° C./min, for a total run time of 14 min. The compounds were separated with an Hewlet Packard HP-5MS (5% phenyl Methyl Siloxane) column (30 m length, 250 um diameter, and 0.25 um film thickness). The mass spectrometer was run in Electron Ionization mode. The background mass spectra was subtracted from the spectra at the retention time of caprolactone (9.857 min). Presence of caprolactone was confirmed by comparison of the test reactions to an authentic standard obtained from Aldrich Chemical Company (St. Louis, Mo.).
Results of these assays are shown below in Table 7, in terms of the presence or absence of detectable caprolactone formation according to the activity of each expressed BV monooxygenase enzyme.

Row | Molecule | Specific Activity of Monooxygenase Enzymes Against Various Ketone Substrates, sp. HCU chnB1 [1] [µmol/min/mg] | Specific Activity of Monooxygenase Enzymes Against Various Ketone Substrates, sp. phi2 chnB [2] [µmol/min/mg] | Specific Activity of Monooxygenase Enzymes Against Various Ketone Substrates, sp. BP2 chnB [3] [µmol/min/mg] | Specific Activity of Monooxygenase Enzymes Against Various Ketone Substrates, sp. phi1 chnB [4] [µmol/min/mg] | Specific Activity of Monooxygenase Enzymes Against Various Ketone Substrates, sp. HCU chnB2 [5] [µmol/min/mg] | Specific Activity of Monooxygenase Enzymes Against Various Ketone Substrates, sp. SE19 chnB [6] [µmol/min/mg] | Specific Activity of Monooxygenase Enzymes Against Various Ketone Substrates, sp. CHX chnB [7] [µmol/min/mg] | Formation of Caprolactone (ability to convert cyclohexanone to caprolactone) [8]
1 | CC1CCCC1=O (stereo not drawn) [2-methyl-cyclopentanone] | 1.395 | 6.445 | 3.514 | 3.392 | 0.874 | 8.378 | 0.627 | 
2 | O=C1CCCCCC1 [Cycloheptanone] | 0.646 | 6.234 | 3.846 | 3.622 | 0.374 | 8.422 | 0.608 | 
3 | O=C1C=CCCC1 [Cyclohex-2-ene-1-one] | 0.435 | 3.091 | 2.739 | 2.694 | 0.541 | 5.357 | 0.666 | 
4 | O=C1CCCCC1 [Cyclohexanone] | 2.765 | 3.750 | 3.565 | 3.680 | 1.726 | 6.349 | 0.397 | 
5 | O=C1CC2CC[C@H]1C2 [Norcamphor] | 0.410 | 2.816 | 2.842 | 1.504 | 1.331 | 4.474 | 0.166 | 
6 | O=C1Cc2ccccc2N1 [Oxindole] | 2.438 | 4.858 | 4.845 | 3.411 | 0.229 | 7.091 | 0.307 | 
7 | CC(=O)/C=C/C1=C(C)CCCC1(C)C [beta-ionone] | 0.109 | 0.544 | 1.485 | 2.707 | 0.374 | 3.347 | 0.544 | 
8 | dimethy-2-piperidone | 2.822 | 6.509 | 4.154 | 3.539 | 0.354 | 8.384 | 0.557 | 
9 | ORF 8: Rhodococcus erythropolis AN12 ORF 8 chnB monooxygenase, protein SEQ ID NO:22, expressed in E. coli (protein, Rhodococcus erythropolis AN12) MSTEGKYALIGAGPSGLAGARNLDRAGIAFDGFESHDDVGGLWDIDNPHSTVYESAHLISSKGTTAFAEFPMADSVADYPSHIELAEYFRDYADTHDLRRHFAFGTTVIDVLPVDSLWQVTTRSRSGETSVARYRGVIIANGTLSKPNIPTFRGDFTGTLMHTSEYRSAEIFRGKRVLVIGAGNSGCDIAVDAVHQAECVDLSVRRGYYFVPKYLFGRPSDTLNQGKPLPPWIKQRVDTLLLKQFTGDPVRFGFPAPDYKIYESHPVVNSLILHHIGHGDVHVRADVDRFEGKTVRFVDGSSADYDLVLCATGYHLDYPFIAREDLDWSGAAPDLFLNVASRRHDNLFVLGMVEASGLGWQGRYQQAELVAKLITARTEAPAAAREFSAAAAGPPPDLSGGYKYLKLGRMAYYVNKDAYRSAIRRHIGLLDAALTKGGQ |  |  |  |  |  |  |  | Detected
